In ChEMBL document CHEMBL1131163 (J Med Chem, 1998):

Biological target: D(2) dopamine receptor (Rattus norvegicus) (UniProt P61169)
Sequence (P61169 whole entry, looked up): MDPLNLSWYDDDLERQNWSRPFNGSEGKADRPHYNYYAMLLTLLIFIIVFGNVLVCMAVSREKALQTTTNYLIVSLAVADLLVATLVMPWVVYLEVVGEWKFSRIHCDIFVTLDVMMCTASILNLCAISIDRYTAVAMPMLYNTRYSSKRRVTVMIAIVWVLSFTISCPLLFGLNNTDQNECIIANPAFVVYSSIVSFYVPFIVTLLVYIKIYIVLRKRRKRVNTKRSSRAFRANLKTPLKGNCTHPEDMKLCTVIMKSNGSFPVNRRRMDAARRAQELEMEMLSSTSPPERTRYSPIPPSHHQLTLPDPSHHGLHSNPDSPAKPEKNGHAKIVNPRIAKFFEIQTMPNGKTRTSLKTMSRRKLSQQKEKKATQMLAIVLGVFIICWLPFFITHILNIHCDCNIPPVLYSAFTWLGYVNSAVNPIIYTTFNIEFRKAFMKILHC

CN1C[C@H](C(N)=O)C=C2c3cccc4[nH]c(Br)c(c34)C[C@H]21
Ki: 2 nM
